Laboratory results: ChEMBL document CHEMBL4043296 (J Med Chem, 2018)

Assays:
[1] = biological target: T1, D(4) dopamine receptor (Homo sapiens, UniProt P21917); experiment: Agonist activity at human SP/Myc epitope-tagged dopamine D4 receptor expressed in HEK293T cells assessed as RLuc8-fused Galphai1 activation after 2 mins by BRET assay; type: cell-based, HEK-293T
T1 sequence (P21917 whole entry): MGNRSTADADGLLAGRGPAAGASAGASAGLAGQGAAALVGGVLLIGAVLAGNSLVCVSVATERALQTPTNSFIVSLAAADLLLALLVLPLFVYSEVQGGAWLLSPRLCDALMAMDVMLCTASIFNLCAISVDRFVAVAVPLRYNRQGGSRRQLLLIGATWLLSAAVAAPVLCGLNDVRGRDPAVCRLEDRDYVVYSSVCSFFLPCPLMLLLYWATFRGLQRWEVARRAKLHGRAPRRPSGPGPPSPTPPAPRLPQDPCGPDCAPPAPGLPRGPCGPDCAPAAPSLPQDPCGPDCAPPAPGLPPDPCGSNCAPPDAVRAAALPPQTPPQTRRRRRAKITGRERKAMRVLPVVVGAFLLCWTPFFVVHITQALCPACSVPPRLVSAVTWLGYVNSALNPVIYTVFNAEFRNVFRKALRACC

[2] = Cmax in CD1 mouse brain at 3 mg/kg, sc after 0.25 hrs by UPLC-MS analysis; type: ADME, organism-based; set-up: dose 3 mg/kg, route subcutaneous
[3] = Cmax in CD1 mouse plasma at 3 mg/kg, sc after 0.25 hrs by UPLC-MS analysis; type: ADME, organism-based; set-up: dose 3 mg/kg, route subcutaneous
[4] = Tmax in CD1 mouse brain at 3 mg/kg, sc by UPLC-MS analysis; type: ADME, organism-based
[5] = Tmax in CD1 mouse plasma at 3 mg/kg, sc by UPLC-MS analysis; type: ADME, organism-based
[6] = AUClast in CD1 mouse brain at 3 mg/kg, sc by UPLC-MS analysis; type: ADME, organism-based; set-up: dose 3 mg/kg, time 0 - last, route subcutaneous
[7] = AUClast in CD1 mouse plasma at 3 mg/kg, sc by UPLC-MS analysis; type: ADME, organism-based; set-up: dose 3 mg/kg, route subcutaneous, time 0 - last
[8] = Half life in CD1 mouse brain at 3 mg/kg, sc by UPLC-MS analysis; type: ADME, organism-based
[9] = Ratio of fAUC in CD1 mouse brain to fAUC in CD1 mouse plasma at 3 mg/kg, sc; type: ADME, organism-based; details: read-out: K(p,uu,brain)
[10] = test system: Plasma; experiment: fAUClast in CD1 mouse plasma at 3 mg/kg, sc by UPLC-MS analysis; type: ADME, organism-based; details: in vivo
[11] = biological target: T2, Muscarinic acetylcholine receptor M1 (Homo sapiens) (UniProt P11229); experiment: (§1) Antagonist activity at human SP/Myc epitope-tagged muscarinic M1 receptor expressed in HEK293T cells assessed as inhibition of carbachol-induced RLuc8-fused Galphaq activation preincubated for 15 mins followed by carbachol induction measured after 2 mins by BRET assay; type: cell-based; details: HEK-293T
T2 sequence (whole entry): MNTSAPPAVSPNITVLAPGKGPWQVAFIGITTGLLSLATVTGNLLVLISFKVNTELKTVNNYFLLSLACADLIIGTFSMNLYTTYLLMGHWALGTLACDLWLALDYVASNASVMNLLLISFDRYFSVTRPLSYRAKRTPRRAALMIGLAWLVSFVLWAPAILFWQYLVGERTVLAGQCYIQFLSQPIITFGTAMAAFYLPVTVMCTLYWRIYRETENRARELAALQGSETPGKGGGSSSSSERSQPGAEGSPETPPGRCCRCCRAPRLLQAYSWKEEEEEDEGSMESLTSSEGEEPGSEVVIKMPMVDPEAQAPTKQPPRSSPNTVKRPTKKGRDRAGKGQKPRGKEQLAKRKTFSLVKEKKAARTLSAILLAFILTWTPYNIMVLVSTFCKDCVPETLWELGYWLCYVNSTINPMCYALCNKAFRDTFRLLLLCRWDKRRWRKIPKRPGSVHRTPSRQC

[12] = biological target: T3, Muscarinic acetylcholine receptor M1 (Homo sapiens, UniProt P11229); experiment: as §1; type: cell-based, HEK-293T
T3 sequence (P11229 whole entry): T2 sequence (whole entry)

[13] = biological target: T4, Muscarinic acetylcholine receptor M4 (Homo sapiens) (UniProt P08173); experiment: (§2) Antagonist activity at human SP/Myc epitope-tagged muscarinic M4 receptor expressed in HEK293T cells assessed as inhibition of carbachol-induced RLuc8-fused Galphaq activation preincubated for 15 mins followed by carbachol induction measured after 2 mins by BRET assay; type: cell-based; details: HEK-293T
T4 sequence (whole entry): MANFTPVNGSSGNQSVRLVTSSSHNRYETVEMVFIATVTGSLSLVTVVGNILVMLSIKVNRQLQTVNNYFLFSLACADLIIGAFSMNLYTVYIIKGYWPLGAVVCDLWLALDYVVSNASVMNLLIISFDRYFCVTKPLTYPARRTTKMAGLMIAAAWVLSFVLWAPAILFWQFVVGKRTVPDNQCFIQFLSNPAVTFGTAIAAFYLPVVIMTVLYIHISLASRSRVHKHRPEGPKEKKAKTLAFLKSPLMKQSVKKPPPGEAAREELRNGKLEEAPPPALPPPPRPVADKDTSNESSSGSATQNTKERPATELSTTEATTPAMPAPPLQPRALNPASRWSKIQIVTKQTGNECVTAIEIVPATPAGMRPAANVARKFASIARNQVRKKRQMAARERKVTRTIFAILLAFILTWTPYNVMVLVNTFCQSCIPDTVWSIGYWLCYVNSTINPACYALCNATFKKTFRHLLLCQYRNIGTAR

[14] = biological target: T5, Muscarinic acetylcholine receptor M4 (Homo sapiens, UniProt P08173); experiment: as §2; type: cell-based, HEK-293T
T5 sequence (P08173 whole entry): T4 sequence (whole entry)

Question: With `O=C1CCc2ccccc2N1CCCN1CCN(c2ccccc2)CC1` as the compound, how does the EC50 [1] read?
Answer: Its EC50 is 0.158 nM.

Question: What about the Cmax [2] of the same compound?
Answer: Its Cmax is 2050 ng/g.

Question: And the Cmax [3]?
Answer: Its Cmax is 481 ng/mL.

Question: What about the Tmax [4] of the same compound?
Answer: The Tmax was 15 min.

Question: What about the Tmax [5] of the same compound?
Answer: Its Tmax is 15 min.

Question: What about the AUC(0-t) [6] of the same compound?
Answer: Its AUC(0-t) is 2380 ng·h/mL.

Question: And the AUC(0-t) [7]?
Answer: Its AUC(0-t) is 518 ng·h/mL.

Question: What about the half-life [8] of the same compound?
Answer: Its half-life is 55.8 min.

Question: What about the Kp uu [9] of the same compound?
Answer: The Kp uu was 4.05.

Question: What about the fAUClast [10] of the same compound?
Answer: The fAUClast was 50.5 ng·h/mL.

Question: Which Imax [11] does the source give for `O=C1CCc2ccccc2N1CCCN1CCC(Cc2ccccc2)CC1` here?
Answer: Its Imax is 44%.

Question: What about the IC50 [12] of the same compound?
Answer: The IC50 was 2630 nM.

Question: And the Imax [13]?
Answer: Its Imax is 66%.

Question: And the IC50 [14]?
Answer: Its IC50 is 8510 nM.
